Results: paper PMC4136845, “Evaluation of Antimalarial Activity and Toxicity of a New Primaquine Prodrug” (PLoS ONE, 2014)
Values joined by “and” are separate entries in the source; they are usually repeats but may differ in a detail not shown here. Equal values may be shown once. “Also recorded” adds a separate entry of the source. Marks after values point to notes of the source that are not given here.

How the values were obtained:
male Wistar rats [1] = experiment: Hemogram of rats treated with multiple doses; settings: gavage four times a day for 4 days, PQ 2.44 mg/kg free base, Phe-Ala-PQ 9.00 mg/kg, mean (CI 95)
Method: (§1) The biochemical, hematological and histopathological analyses were carried out in male Wistar rats (weighing 200–250 g). They were housed in wire cages, five animals per cage, with free access to food and water. The study protocol was approved by The Research Ethics Committee of the School of Pharmaceutical Sciences, UNESP, Araraquara (process 06/2009). […] After treatment with the drugs, the animals were decapitated for collection of blood and samples of liver and kidneys (preserved in 10% formaldehyde).
(§2) In biochemical analysis, aspartate aminotransferase (AST), alanine aminotransferase (ALT), gamma-glutamyltransferase (GGT), bilirubin, creatinine and urea kits were purchased from LabTest Diagnostica SA (Lagoa Santa,Minas Gerais, Brazil). Alkaline phosphatase (ALP) was assayed by the conversion of p-nitrophenyl phosphate to p-nitrophenol in a kinetic reaction, measured with a spectrophotometer at 405 nm. To determine the level of methemoglobin in relation to oxyhemoglobin, we used the method described by Naoum and collaborators. The blood was hemolyzed and the hemoglobin stabilized in 60 mM phosphate buffer, pH 6.8. The levels of methemoglobin and oxyhemoglobin were determined by spectrophotometric absorption at 630 and 540 nm. The total and differential white blood cell (WBC) counts were performed using a Neubauer chamber and blood smears, respectively. The hematocrit was determined using conventional method by microcapillary centrifugation.

[2] = system: monkey kidney cell line (BGM); experiment: In vitro cytotoxicity, MTT assay, BGM cells; settings: for MDL50 (Mean±SD) BGM: 24 h incubation
Method: (§3) The HepG2 (ATCC HB-8065) was originally received from the New University of Lisbon, Portugal, and BGM received as a gift from the Federal University of Minas Gerais and originally purchased from Rio de Janeiro Cell Bank (BCRJ 0049). When confluent, the cells were washed with RPMI culture medium, then trypsinized, distributed in a flat-bottom 96-well plate (5×10^3 cells/well), and incubated for 18 h at 37°C for cell adherence as described elsewhere. The compound (20 µL) was added to each well at various concentrations (1-1000 µg/mL) and the plate incubated for 24 h in a 5% CO2 atmosphere at 37°C. MTT [3-(4,5-dimethylthiazol-2-yl)-2,5-diphenyltetrazolium bromide] (5 mg/mL; 20 µL/well) was added to evaluate mitochondrial viability, and the plates were incubated again for 3 h, under the same culture conditions. The supernatant was carefully removed, and 100 µL of DMSO were added with mixing to dissolve the formazan crystals formed. The optical density was determined at 570 and 630 nm (background) (SpectraMax 340PC 384, Molecular Devices). Cell viability was expressed as the percentage of the control absorbance of the untreated cells after subtracting the appropriate background. The minimum lethal dose for 50% of the cells (MLD50) was determined as previously described.

[3] = Partition coefficient (log P) by HPLC method, OECD guideline
Method: A Waters Alliance HPLC system equipped with a UV-Vis 2487 detector was employed. The chromatographic analysis was performed on a Symmetry C18 HPLC column (4.6 mm×250 mm, 5 µm particle size) and the mobile phase was methanol:water (70∶30), with detection at 256 nm. A flow rate of 1.0 mL/min was used and 50-µL samples were injected into the chromatographic system. The run time was approximately 15 min. The analytical curve was constructed on the basis of the retention time of the standards (purchased from Sigma Aldrich, NJ, USA) butanone, acetanilide, phenol, phenacetin, benzene, toluene, chlorobenzene and thymol, dissolved in mobile phase at a concentration of 50 µg/mL. The substances were analyzed in triplicate and the average retention time for each standard was used. The capacity factor (k) was obtained by the equation [20]: k = (tR - t0) /t0, where tR is the retention time of the test substance and t0 the dead-time. The log k values were correlated with the partition coefficients of the standards for construction of the analytical curve. […] The coefficient of determination (r^2) was also calculated to evaluate the linearity of the analytical curve.

[4] = system: human hepatoma cell line (HepG2); experiment: In vitro cytotoxicity, MTT assay, HepG2 cells; settings: for MDL50 (Mean±SD) HepG2: 24 h incubation
Method: as §3

male Wistar rats [5] = experiment: Biochemical analysis of serum of rats treated with multiple doses; settings: rat serum, gavage four times a day for 4 days, PQ diphosphate 2.44 mg/kg free base, Phe-Ala-PQ 9.00 mg/kg, mean
Method: as §1, §2

P. gallinaceum = experiment: Inhibition of P. gallinaceum sporogony in Aedes fluviatilis mosquitoes fed on infected, treated chickens; assay type: in vivo; settings: for Mean oocyts ±SD/ in times 4 h: chicken, mosquitoes fed 4 h after treatment; for Reduction in oocyst number, % / Sporogony inhibition, %: 4 h vs 0 h
Method: One-week-old chicks (Gallus gallus domesticus) previously inoculated with 10^6 RBC infected with P. gallinaceum, had their parasitemia monitoried daily, by examining Giemsa-stained thin blood smears; they were used to feed the mosquitoes when reaching 2.8 – 3.8%. The A. fluviatilis mosquitoes were kept for 24 h without sugar in their diet, to improve their ability to take the blood meal from chickens. For each compound the same infected chicken was offered twice to feed clean mosquitoes (30 female mosquitoes per group), before treatment, (group 0 h). Drug treatment was immediately performed by gavage and the treated chicken was offered again to blood-feed another group of mosquitoes (test group) 4 h after treatment of the chicken with the drug. […] In each experiment, another non-treated P. gallinaceum-infected chick was used twice (time 0 h and 4 h later) to feed clean mosquitoes, serving as an internal control.
Seven days after the blood meal, the mosquitoes were dissected and their midgut was removed under a stereomicroscope (100x), stained with 0.5% mercurochrome, and examined under a light microscope (40x) for the oocyst count. […] Two criteria were used to evaluate drug activity: the total number of infected mosquitoes and the mean number of oocysts, based on the examination of 20 mosquitoes in each group.

[6] = cited from earlier work
in vitro = settings: human
Method: (§4) The hemolytic rate was calculated using 0.05% saponin as the positive control for hemolysis of human RBC, which was considered 100% [24], [25]. The diagnosis of G6PD deficiency was performed using a technique based on the principle that hemoglobin oxidized to methemoglobin, by the action of sodium nitrite, is catalyzed by an enzyme, in the presence of methylene blue [26]. […] All participants signed a written informed consent before blood collection. The consent was approved by the Ethics Committee of CEPEM.

male Wistar rats [7] = experiment: Histopathological evaluation of rat liver and kidney; settings: multiple doses; for Liver glycogen: PAS-positive cells (total), periportal region: compared to the control group; for Histopathological analysis of the kidney: hematoxylin/eosin
Method: as §1
The liver and kidney were removed from each rat to perform the histopathological evaluation. Tissue pieces were fixed in 10% formaldehyde and embedded in paraffin. Each organ was then cut into 4-µm thick sections and subjected to standard hematoxylin/eosin staining. Hepatic glycogen staining in sections was carried out using the standard periodic acid-Schiff (PAS) reaction, followed by hematoxylin counterstaining, and the periportal and centrilobular regions of the liver were analyzed according to Thoolen et al.. Five periportal regions and five centrilobular regions were photographed in each animal, for a total of 300 photographs, and these images were adjusted using Pixelmator software (2.2.1). Nuclear hepatocyte glycogen levels were classified as: A- PAS<50% of cells, B- PAS≥50% of cells and C- PAS-negative. Additionally, liver sections were examined for the occurrence of microvesicular fatty changes, as well as the kidney sections for inflammatory infiltration, reduction of Bowman's spaces and changes in renal tubules. Statistical analysis was performed in Graphpad Prism 5.0b. Data for each organ analysis were expressed qualitatively and quantitatively, and normal distribution was verified (D'Agostin and Person). t-tests and chi-square tests were performed, and non-parametric data were evaluated using the Mann-Whitney or Kruskal-Wallis test for pair wise comparisons of groups. The significance level was set at 5%.

In vitro hemolysis assay = settings: human
Method: as §4

[8] = previous study; cited from earlier work
[9] = system: G6PD-deficient human red blood cells; experiment: In vitro hemolysis assay
Method: as §4

[10] = single oral dose 1.0 mg/kg (Phe-Ala-PQ: 0.19 mg/kg PQ)
[11] = MTT, 24 h, expressed as PQ equivalents
[12] = single oral dose 5.0 mg/kg (0.94 mg/kg PQ)
[13] = single oral dose 10 mg/kg (1.9 mg/kg PQ)

COc1cc(NC(C)CCCN)c2ncccc2c1 (stereo not shown) [PQ, Primaquine]
Eosinophils Absolute (No. cells) (male Wistar rats [1]): 97 (43–151) No. cells
Eosinophils Relative (%) (male Wistar rats [1]): 2.10 (0.77–3.42) %
Hematocrit (male Wistar rats [1]): 46 (44–48) %
Leukocytes (male Wistar rats [1]): 4840 (3973–5706) /mm^3
Lymphocytes Absolute (No. cells) (male Wistar rats [1]): 4123 (3200–5046) No. cells
Lymphocytes Relative (%) (male Wistar rats [1]): 83.9 ^a (78.9–88.9) %
Methemoglobin (male Wistar rats [1]): 3.89 (3.39–4.40) %
Monocytes Absolute (No. cells) (male Wistar rats [1]): 96 ^a (52–140) No. cells
Monocytes Relative (%) (male Wistar rats [1]): 2.30 ^a (0.86–3.73) %
Neutrophils Band Absolute (No. cells) (male Wistar rats [1]): 6 (0–19) No. cells
Neutrophils Band Relative (%) (male Wistar rats [1]): 0.11 (0.00–0.36) %
Neutrophils Segmented Absolute (No. cells) (male Wistar rats [1]): 516 ^a (403–629) No. cells
Neutrophils Segmented Relative (%) (male Wistar rats [1]): 11.6 ^a (8.15–15.0) %
MDL50 (Mean±SD) BGM ([2]; MTT): 263 µg/mL and 263 ± 4 µg/mL
chromatographic logP [3]: 2.1
MDL50 (Mean±SD) HepG2 ([4]; MTT): 180 µg/mL and 180 ± 24 µg/mL
ALP (male Wistar rats [5]): 125.6 U/L
ALT (male Wistar rats [5]): 91.81 ^a U/L
AST (male Wistar rats [5]): 64.99 ^a U/L
Creatinine (male Wistar rats [5]): 0.986 mg/dL and 0.986 ^a mg/dL
Direct bilirubin (male Wistar rats [5]): 0.228 mg/dL
GGT (male Wistar rats [5]): 22.88 ^a U/L
Total bilirubin (male Wistar rats [5]): 0.797 mg/dL and 0.797 ^a mg/dL
Urea (male Wistar rats [5]): 18.51 mg/dL
Mean oocyts ±SD/ in times 4 h (P. gallinaceum; [10]): 2.1
Mean oocyts ±SD/ in times 4 h (P. gallinaceum; single oral dose 1.0 mg/kg (Phe-Ala-PQ: 0.19 mg/kg PQ), listed as PQ diphosphate): 2.1±4.3
Reduction in oocyst number, % (P. gallinaceum; [10]): 96%
Sporogony inhibition, % (P. gallinaceum; [10]): 50%
plasma half-life [6]: ca. 6 h
hemolysis at 31 µg/mL (in vitro): 0%
hemolysis at 62 µg/mL (in vitro): 0%
hemolysis at 1000 µg/mL (in vitro): 100%
Liver glycogen: positive cells (<50%), periportal region (male Wistar rats [7]): decrease
Liver glycogen: PAS-positive cells (total), periportal region (male Wistar rats [7]): more PAS-positive cells (total) compared to the control group
Histopathological analysis of the kidney (male Wistar rats [7]): normal structures, with no alteration in the glomeruli and renal tubules
hemolysis at 125 µg/mL (In vitro hemolysis assay): 0%
hemolysis at 250 µg/mL (In vitro hemolysis assay): 50%
hemolysis at 500 µg/mL (In vitro hemolysis assay): 87.8%

COc1cc(NC(C)CCCNC(=O)[C@H](C)NC(=O)[C@@H](N)Cc2ccccc2)c2ncccc2c1 (stereo partly drawn) [Phe-Ala-PQ, phenylalanine-alanine-primaquine]
Eosinophils Absolute (No. cells) (male Wistar rats [1]): 40 (0–152) No. cells
Eosinophils Relative (%) (male Wistar rats [1]): 0.40 (0.00–1.51) %
Hematocrit (male Wistar rats [1]): 47 (45–48) %
Hemoglobin (male Wistar rats [1]): 11.76 (11.38–12.14)
Leukocytes (male Wistar rats [1]): 8700 ^a ^, ^b (5623–11777) /mm^3
Lymphocytes Absolute (No. cells) (male Wistar rats [1]): 7691 ^a ^, ^b (5947–9976) No. cells
Lymphocytes Relative (%) (male Wistar rats [1]): 83.0 ^a (75.8–90.2) %
Methemoglobin (male Wistar rats [1]): 3.65 (3.45–3.85) %
Monocytes Absolute (No. cells) (male Wistar rats [1]): 812 ^b (0–1728) No. cells
Monocytes Relative (%) (male Wistar rats [1]): 7.60 ^b (0.06–15.1) %
Neutrophils Band Absolute (No. cells) (male Wistar rats [1]): 0 No. cells
Neutrophils Band Relative (%) (male Wistar rats [1]): 0%
Neutrophils Segmented Absolute (No. cells) (male Wistar rats [1]): 895 (163–1626) No. cells
Neutrophils Segmented Relative (%) (male Wistar rats [1]): 9.00 ^a (2.55–15.4) %
MDL50 BGM, PQ equivalents [2, 11]: 110 µg/mL
MDL50 (Mean±SD) BGM ([2]; MTT): 580 µg/mL and 580 ± 86 µg/mL
Toxicity to BGM cells compared to PQ ([2]; ratio of MDL50 values): about two times less toxic
log P ([3]; HPLC method): 0.94
MDL50 HepG2, PQ equivalents [4, 11]: 175 µg/mL
MDL50 (Mean±SD) HepG2 ([4]; MTT): 920 µg/mL and 920 ± 1 µg/mL
Toxicity to HepG2 cells compared to PQ ([4]; ratio of MDL50 values): five times less toxic
oral bioavailability [8]: approximately 50%
ALP (male Wistar rats [5]): 93.52 U/L
ALT (male Wistar rats [5]): 185.7 ^a, ^b U/L
AST (male Wistar rats [5]): 290.6^a, ^b U/L
Creatinine (male Wistar rats [5]): 0.529 mg/dL
Direct bilirubin (male Wistar rats [5]): 0.147 mg/dL
GGT (male Wistar rats [5]): 13.03^a, ^b U/L
Total bilirubin (male Wistar rats [5]): 0.711 mg/dL
Urea (male Wistar rats [5]): 5.734^a, ^b mg/dL
Urea (male Wistar rats [5]; listed as prodrug): 5.734 mg/dL
Mean oocyts ±SD/ in times 4 h (P. gallinaceum; [10]): 26±36
Mean oocyts ±SD/ in times 4 h (P. gallinaceum; [12]): 6±6
Mean oocyts ±SD/ in times 4 h (P. gallinaceum; [13]): 0±0
Reduction in oocyst number, % (P. gallinaceum; [10]): 0%
Sporogony inhibition, % (P. gallinaceum; [10]): 0%
Reduction in oocyst number, % (P. gallinaceum; [12]): 70%
Reduction in oocyst number, % (P. gallinaceum; [13]): 100%
Sporogony inhibition, % (P. gallinaceum; [13]): 100%
Liver glycogen: positive cells (<50%), periportal region (male Wistar rats [7]): increase
Liver glycogen: PAS-positive cells (>50%), overall analysis of the liver (male Wistar rats [7]; compared to control group): more PAS-positive cells (>50%)
Liver cells with fatty microvesicular changes (male Wistar rats [7]; compared to the PQ group, listed as prodrug): fewer cells with fatty microvesicular changes; also recorded: lower percentage of cells with fatty microvesicular changes
Liver glycogen: PAS-positive cells (total), periportal region (male Wistar rats [7]): more PAS-positive cells (total) compared to the control group
Histopathological analysis of the kidney (male Wistar rats [7]): normal structures, with no alteration in the glomeruli and renal tubules
Hemolysis % ([9]; 125 µg/mL (Phe-Ala-PQ: 23.7 µg/mL PQ equivalents)): 0%
Hemolysis % ([9]; 500 µg/mL (Phe-Ala-PQ: 95 µg/mL PQ equivalents)): 51%
Hemolysis ([9]; concentrations equal to or less than 250 µg/mL (47.5 µg/mL PQ equivalents)): did not cause hemolysis
